Target: T1, α4β7 integrin (Homo sapiens, UniProt P13612+P26010)
T1 construct: monitoring the capture of α4β7 integrin expressing cells on a recombinant MadCAM-1 extracellular domain-coated plate; endogenous in cells; host or cells: RPMI8866 cells
T1 sequence (P13612 34-1032): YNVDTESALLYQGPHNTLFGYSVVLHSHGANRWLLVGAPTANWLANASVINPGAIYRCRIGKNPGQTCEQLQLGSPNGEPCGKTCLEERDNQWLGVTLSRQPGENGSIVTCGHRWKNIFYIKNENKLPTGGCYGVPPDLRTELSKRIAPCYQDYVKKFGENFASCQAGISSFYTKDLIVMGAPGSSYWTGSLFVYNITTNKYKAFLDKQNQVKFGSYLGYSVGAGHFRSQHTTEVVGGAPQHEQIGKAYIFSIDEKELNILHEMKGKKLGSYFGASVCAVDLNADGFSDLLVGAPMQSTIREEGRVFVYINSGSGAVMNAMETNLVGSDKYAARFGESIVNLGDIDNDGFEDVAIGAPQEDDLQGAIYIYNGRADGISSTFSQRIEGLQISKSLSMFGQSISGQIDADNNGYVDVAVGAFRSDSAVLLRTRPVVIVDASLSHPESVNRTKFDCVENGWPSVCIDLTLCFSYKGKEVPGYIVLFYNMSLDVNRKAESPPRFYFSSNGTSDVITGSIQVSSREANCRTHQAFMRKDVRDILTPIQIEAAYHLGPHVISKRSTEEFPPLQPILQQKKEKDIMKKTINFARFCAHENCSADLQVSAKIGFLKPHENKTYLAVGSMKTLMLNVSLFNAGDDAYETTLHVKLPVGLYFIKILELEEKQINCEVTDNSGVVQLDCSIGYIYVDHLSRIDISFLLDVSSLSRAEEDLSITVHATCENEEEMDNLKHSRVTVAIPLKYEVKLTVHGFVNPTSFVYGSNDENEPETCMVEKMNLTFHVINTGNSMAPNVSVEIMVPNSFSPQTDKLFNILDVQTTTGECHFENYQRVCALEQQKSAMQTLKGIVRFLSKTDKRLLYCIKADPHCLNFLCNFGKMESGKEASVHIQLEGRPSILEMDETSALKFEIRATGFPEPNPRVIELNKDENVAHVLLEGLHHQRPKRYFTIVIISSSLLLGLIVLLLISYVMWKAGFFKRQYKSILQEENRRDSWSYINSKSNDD
T1 sequence (P26010 20-798): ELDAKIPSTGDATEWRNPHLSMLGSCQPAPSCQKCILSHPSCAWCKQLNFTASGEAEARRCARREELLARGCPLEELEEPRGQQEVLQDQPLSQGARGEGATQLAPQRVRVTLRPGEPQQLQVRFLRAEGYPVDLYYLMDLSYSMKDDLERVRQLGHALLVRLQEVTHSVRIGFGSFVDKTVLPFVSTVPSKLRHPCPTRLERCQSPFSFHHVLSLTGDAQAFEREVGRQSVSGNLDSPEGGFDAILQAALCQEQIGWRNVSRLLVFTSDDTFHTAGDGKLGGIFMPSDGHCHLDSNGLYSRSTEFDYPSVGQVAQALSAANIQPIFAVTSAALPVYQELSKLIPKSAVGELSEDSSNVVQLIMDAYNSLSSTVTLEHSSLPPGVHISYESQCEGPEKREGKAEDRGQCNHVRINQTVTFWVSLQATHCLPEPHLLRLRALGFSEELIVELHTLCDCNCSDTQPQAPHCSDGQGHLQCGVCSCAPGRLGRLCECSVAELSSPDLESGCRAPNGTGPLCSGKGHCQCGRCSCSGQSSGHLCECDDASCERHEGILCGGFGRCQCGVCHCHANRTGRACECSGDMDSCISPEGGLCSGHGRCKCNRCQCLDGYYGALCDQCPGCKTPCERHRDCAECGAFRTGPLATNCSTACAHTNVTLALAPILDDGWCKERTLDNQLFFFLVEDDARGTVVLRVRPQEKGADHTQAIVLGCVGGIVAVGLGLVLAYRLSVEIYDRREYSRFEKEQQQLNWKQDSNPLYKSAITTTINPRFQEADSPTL
Test: α4β7 Integrin Cell Capture Assay
Assay type: cell-based
Conditions: capture of α4β7 integrin expressing RPMI8866 cells on recombinant MadCAM-1 extracellular domain-coated plate; DMEM+0.5% FBS+0.5 mM MnCl2; read-out: EC50 α4β7
How it was run: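 RPMI8866 cells in DMEM + 0.5% FBS + 0.5 mM MnCl2 preincubated with compound 1 h at 37 °C, then allowed to bind 30 min at 37 °C to plates coated with MAdCAM-1 extracellular domain (1.0 μg/mL). Cells fixed with glutaraldehyde, Hoechst-stained, imaged and bound cells counted; EC50 from cell count versus concentration.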

SMILES | EC50 [nM]
O=C(N[C@@H](Cc1ccc(-c2c(Cl)cc(F)cc2Cl)c2cccnc12)C(=O)O)c1c(F)cc(N[C@H](c2ccccc2)C(F)(F)F)cc1F [Example 3, (S)-3-(5-(2,6-dichloro-4-fluorophenyl)quinolin-8-yl)-2-(2,6-difluoro-4-(((R)-2,2,2-trifluoro-1-phenylethyl)amino)benzamido)propanoic acid] | 393
Cn1cc(-c2ccc(C[C@H](NC(=O)c3c(Cl)cccc3Cl)C(=O)O)c3ncccc23)c(C(F)(F)F)n1 [Example 17, (S)-2-(2,6-dichlorobenzamido)-3-(5-(1-methyl-3-(trifluoromethyl)-1H-pyrazol-4-yl)quinolin-8-yl)propanoic acid] | 356
Cn1cc(C(F)(F)F)cc(-c2ccc(C[C@H](NC(=O)c3c(Cl)cccc3Cl)C(=O)O)c3ncccc23)c1=O [Example 23, (S)-2-(2,6-dichlorobenzamido)-3-(5-(1-methyl-2-oxo-5-(trifluoromethyl)-1,2-dihydropyridin-3-yl)quinolin-8-yl)propanoic acid] | 18.5
O=C(N[C@@H](Cc1ccc(-c2cccc[n+]2[O-])c2cccnc12)C(=O)O)c1c(Cl)cccc1Cl [Example 38] | 212
CS(=O)(=O)Nc1cc(F)c(C(=O)N[C@@H](Cc2ccc(-c3c(Cl)cc(F)cc3Cl)c3cccnc23)C(=O)O)c(F)c1 [Example 4, (S)-3-(5-(2,6-dichloro-4-fluorophenyl)quinolin-8-yl)-2-(2,6-difluoro-4-(methylsulfonamido)benzamido)propanoic acid] | 26
O=C(N[C@@H](Cc1ccc(-c2ncc3ccccc3c2Br)c2cccnc12)C(=O)O)c1c(Cl)cccc1Cl [Example 25, (S)-3-(5-(4-bromoisoquinolin-3-yl)quinolin-8-yl)-2-(2,6-dichlorobenzamido)propanoic acid] | 20

The next lines start with the values.

EC50 [nM] | SMILES
0.8 | CC[C@@H](Nc1cc(F)c(C(=O)N[C@@H](Cc2ccc(-c3c(OC)cnn(C)c3=O)c3ccccc23)C(=O)O)c(F)c1)C(F)(F)F (single isomer, unassigned) [Example 136]
152 | COc1cc(F)cc(C(F)(F)F)c1-c1ccc(C[C@H](NC(=O)c2c(Cl)cccc2Cl)C(=O)O)c2ncccc12 (single isomer, unassigned) [Example 50]
46.2 | COc1cc(F)cc(C(F)(F)F)c1-c1ccc(C[C@H](NC(=O)c2c(Cl)cccc2Cl)C(=O)O)c2ncccc12 (single isomer, unassigned) [Example 49]
4.4 | Cn1c(=O)c(-c2ccc(C[C@H](NC(=O)c3c(Cl)cccc3Cl)C(=O)O)c3ncccc23)c(C(F)(F)F)c2cc(Br)ccc21 (single isomer, unassigned) [Example 64]
1.7 | Cc1cc(C(F)(F)F)c(-c2ccc(C[C@H](NC(=O)c3c(F)cc(N4CCOC[C@@H]4C(F)(F)F)cc3F)C(=O)O)c3ccccc23)c(=O)n1C (single isomer, unassigned) [Example 128]

Reference: patent US11179383B2 (Gilead Sciences, Inc., priority 2018, dated 2021)
